Drawing on patent publication US20240018125A1, “CYCLIC ISOTHIOUREA DERIVATIVES AS CXCR4 MODULATORS” (ERMIUM THERAPEUTICS, priority 2020, published 2024), this text covers melting point and IC50 for 23 molecules.

Structures can show the parent of a compound that is named as a salt. A value given as a limit tells only on which side of the number the result lay.

Data set [1] relates to peripheral blood mononuclear cells (PBMCs) from healthy donors. Nature of the data set: IFN production by R848-activated PBMCs, quantified with twINNE luciferase reporter cell line. The class given is cell-based, human. To be noted: Homo sapiens, PBMC; read-out: IC50 of anti-inflammatory activity (IFN production by activated PBMCs). The method in brief: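 Functional IFN was quantified by luciferase output from the twINNE ISRE-reporter line after 24 h on conditioned supernatants. Those supernatants came from human PBMCs (4.10^6/mL) pre-treated with compound and then stimulated for 24 h with 5 μg/mL resiquimod. IC50s were fitted by nonlinear variable-slope regression.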
A general note: Reporter assays use an easily measured gene product as a stand-in for the process of interest.

`Cl.c1ccc2c(c1)CN=C(SCCN1CCc3ccccc31)N2` [Example 115, 2-((2-(indolin-1-yl)ethyl)thio)-1,4-dihydroquinazoline hydrochloride] returned a melting point of 82 to 88 °C. In data set [1], the IC50 fell in the range of 10 to 32 µM.
With `Cl.c1ccc2c(c1)CN=C(SCCCN1CCCC1)N2` [Example 136, 2-((3-(pyrrolidin-1-yl)propyl)thio)-1,4-dihydroquinazoline dihydrochloride], the melting point fell in the range of 178 to 182 °C. Also, the IC50 in data set [1] is ≤ 10 µM.
In the case of `COc1cc2nc3scc(CSC4=NCc5ccccc5N4)n3c2cc1OC.Cl` [Example 97, 3-(((3,4-dihydroquinazolin-2-yl)thio)methyl)-6,7-dimethoxybenzo[4,5]imidazo[2,1-b]thiazole hydrochloride], the melting point was in the range of 238 to 240 °C. Also, the IC50 in data set [1] is > 32 µM.
Molecule `Cl.c1ccc2c(c1)CN=C(SCCC1CCCC1)N2` [Example 197, 2-((2-cyclopentylethyl)thio)-1,4-dihydroquinazoline hydrochloride] came in with a melting point of 42 to 50 °C. In addition, the IC50 in data set [1] lay in the range of 10 to 32 µM.
For `C1=C(CSC2=N[C@@H]3CCCC[C@H]3N2)N2Cc3ccccc3N=C2S1` (as salt: hydrochloride) [Example 32, 3-((((3aR,7aR)-3a,4,5,6,7,7a-hexahydro-1H-benzo[d]imidazol-2-yl)thio)methyl)-5H-thiazolo[2,3-b]quinazoline dihydrochloride], the melting point is > 250 °C.
As for `C1=C(CSC2=NCc3ccccc3N2)N2CC(CCc3ccccc3)N=C2S1` (stereo not shown) (as salt: hydrochloride) [Example 126, 3-(((1,4-dihydroquinazolin-2-yl)thio)methyl)-6-phenethyl-5,6-dihydroimidazo[2,1-b]thiazole dihydrochloride], the melting point lay within 136 to 142 °C.
Take `CC1(C)CN2C(CSC3=NCc4ccccc4N3)=CSC2=N1` (as salt: hydrochloride) [Example 3, 3-(((3,4-dihydroquinazolin-2-yl)thio)methyl)-6,6-dimethyl-5,6-dihydroimidazo[2,1-b]thiazole dihydrochloride]: the melting point lay in the range of 245 to 249 °C.
With `Fc1ccc2c(c1)N=C1SC=C(CSC3=NCc4ccccc4N3)N1C2` (as salt: hydrochloride) [Example 82, 3-(((1,4-dihydroquinazolin-2-yl)thio)methyl)-8-fluoro-5H-thiazolo[2,3-b]quinazoline dihydrochloride], the melting point was > 250 °C.
For `CC1(C)N=C(SCC2=CSC3=NCc4ccccc4CN23)Nc2ccccc21` (as salt: hydrochloride) [Example 21, 3-(((4,4-dimethyl-1,4-dihydroquinazolin-2-yl)thio)methyl)-5,10-dihydrobenzo[e]thiazolo[3,2-a][1,3]diazepine dihydrochloride], the melting point was > 250 °C.
Molecule `Fc1ccc(CC2CN3C(CSC4=NCc5ccccc5N4)=CSC3=N2)cc1` (stereo not shown) (as salt: hydrochloride) [Example 196, 3-(((1,4-dihydroquinazolin-2-yl)thio)methyl)-6-(4-fluorobenzyl)-5,6-dihydroimidazo[2,1-b]thiazole dihydrochloride] registered a melting point of 155 to 160 °C.
The same measure, in the same setting: then `CCCCC1CN=C(SCC2=CSC3=Nc4ccccc4CN23)N1` (stereo not shown) (as salt: hydrochloride) [Example 29, 3-(((5-butyl-4,5-dihydro-1H-imidazol-2-yl)thio)methyl)-5H-thiazolo[2,3-b]quinazoline dihydrochloride], with 227 to 234 °C; and `CC1(C)N=C(SCC2=CSC3=Nc4cccc(F)c4CN23)Nc2ccccc21` (as salt: hydrochloride) [Example 73, 3-(((4,4-dimethyl-1,4-dihydroquinazolin-2-yl)thio)methyl)-6-fluoro-5H-thiazolo[2,3-b]quinazoline dihydrochloride], with 190 to 194 °C.
In the case of `C1=C(CSC2=NCC(Cc3ccccc3)N2)N2Cc3ccccc3N=C2S1` (stereo not shown) (as salt: hydrochloride) [Example 33, 3-(((5-benzyl-4,5-dihydro-1H-imidazol-2-yl)thio)methyl)-5H-thiazolo[2,3-b]quinazoline dihydrochloride], the melting point was > 250 °C.
Still for that read-out and setting: the result for `COc1ccc(CC2(C)CN3C(CSC4=NCc5ccccc5N4)=CSC3=N2)cc1` (stereo not shown) (as salt: hydrochloride) [Example 46, 3-(((3,4-dihydroquinazolin-2-yl)thio)methyl)-6-(4-methoxybenzyl)-6-methyl-5,6-dihydroimidazo[2,1-b]thiazole dihydrochloride] reads 156 to 168 °C; that for `CC1N=C(SCC2=CSC3=NC(Cc4ccccc4)CN23)Nc2ccccc21` (stereo not shown) (as salt: hydrochloride) [Example 113, 6-benzyl-3-(((4-methyl-1,4-dihydroquinazolin-2-yl)thio)methyl)-5,6-dihydroimidazo[2,1-b]thiazole dihydrochloride], 80 to 88 °C.
Molecule `Fc1cccc2c1CN=C(SCC1=CSC3=NC(Cc4ccccc4)CN13)N2` (stereo not shown) (as salt: hydrochloride) [Example 117, 6-benzyl-3-(((5-fluoro-1,4-dihydroquinazolin-2-yl)thio)methyl)-5,6-dihydroimidazo[2,1-b]thiazole dihydrochloride] came in with a melting point of 147 to 151 °C.
`COc1cc2nc3n(c2cc1OC)C(O)(CSC1=NCc2ccccc2N1)CS3.Cl` (stereo not shown) registered a melting point of 235 to 240 °C.
For the molecule `CCCCN1Cc2ccccc2N=C1SCC1=CSC2=NC(Cc3ccccc3)CN12` (stereo not shown) (as salt: hydrochloride) [Example 93, 6-benzyl-3-(((3-butyl-3,4-dihydroquinazolin-2-yl)thio)methyl)-5,6-dihydroimidazo[2,1-b]thiazole dihydrochloride], the melting point was in the range of 40 to 44 °C.
`C1=C(CSC2=NCc3ccccc3N2)N2CCc3ccccc3N=C2S1` (as salt: hydrochloride) [Example 35, 3-(((3,4-dihydroquinazolin-2-yl)thio)methyl)-5,6-dihydrobenzo[d]thiazolo[3,2-a][1,3]diazepine dihydrochloride] yielded a melting point of 248 to 249 °C.
With `C1=C(CSC2=NCc3cccnc3N2)N2Cc3ccccc3CN=C2S1.Cl.Cl.Cl` [Example 31, 3-(((1,4-dihydropyrido[2,3-d]pyrimidin-2-yl)thio)methyl)-5,10-dihydrobenzo[e]thiazolo[3,2-a][1,3]diazepine trihydrochloride], the melting point lay within 194 to 203 °C. Further, in data set [1], the IC50 was ≤ 10 µM.
`C1=C(CSC2=NCc3ccccc3N2)N2C(=N[C@H](c3ccccc3)[C@H]2c2ccccc2)S1` (relative stereo) (as salt: hydrochloride) [Example 16, trans-3-(((3,4-dihydroquinazolin-2-yl)thio)methyl)-5,6-diphenyl-5,6-dihydroimidazo[2,1-b]thiazole dihydrochloride] yielded a melting point of 175 to 185 °C.
Consider `c1ccc2c(c1)CN(CCSC1=NCc3ccccc3N1)C2` (as salt: hydrochloride) [Example 71, 2-((2-(isoindolin-2-yl)ethyl)thio)-3,4-dihydroquinazoline dihydrochloride], for which the melting point is 134 to 138 °C.
Take `C1=C(CSC2=NCc3ccccc3N2)N2Cc3ccccc3N=C2S1` (as salt: hydrochloride) [Example 12, 3-(((1,4-dihydroquinazolin-2-yl)thio)methyl)-5H-thiazolo[2,3-b]quinazoline dihydrochloride]: the melting point is > 250 °C.

A word on the melting point: it is the temperature of the solid-liquid transition. For orientation: IC50 means the concentration that inhibits the measured activity by half.
